Assay results taken from PubChem BioAssay (NCI).
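Five concentrations, 48 hours, 96-well plates. Abbreviation: GI50, concentration required for 50% inhibition of growth. The concentration for full growth arrest is given as TGI.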

Columns and labels:
Experiment in all cases: DTP human tumour cell line panel, 48 h
[1] = tested on: CCRF-CEM leukemia
[2] = tested on: HT29 colon
[3] = tested on: LOX IMVI melanoma
[4] = tested on: NCI-H23 lung
[5] = tested on: SK-MEL-5 melanoma
[6] = tested on: SNB-75 CNS
[7] = tested on: SW-620 colon
[8] = tested on: TK-10 renal
[9] = tested on: UACC-62 melanoma
[10] = tested on: SR leukemia

C[Si](C)(C)[C@@]1([Se]c2ccccc2)CC[C@@H]1C(=O)c1ccccc1
TGI [1]: > 100 µM | TGI [2]: > 100 µM | TGI [3]: > 100 µM | TGI [4]: > 100 µM | TGI [5]: 37.4 µM | TGI [6]: > 100 µM | TGI [7]: > 100 µM | TGI [8]: > 100 µM | TGI [9]: > 100 µM

NC(=O)c1ccc(-c2c3ccccc3cc3c2ccc2ccccc23)cc1
GI50 [1]: 5.83 µM | TGI [1]: > 100 µM | GI50 [3]: 4.86 µM | TGI [3]: 32.6 µM | GI50 [4]: 10.7 µM | TGI [4]: 84.4 µM | GI50 [5]: 3.1 µM | TGI [5]: 14 µM | GI50 [6]: 2.19 µM | TGI [6]: 9.15 µM | GI50 [10]: 1.3 µM | TGI [10]: > 100 µM | GI50 [7]: 2.56 µM | TGI [7]: 19.7 µM | GI50 [9]: 4.32 µM | TGI [9]: 40.2 µM

c1ccc(CN(Cc2ccccn2)Cn2cccn2)nc1
TGI [1]: > 100 µM | TGI [3]: > 100 µM | TGI [4]: > 100 µM | TGI [5]: > 100 µM | TGI [6]: > 100 µM | TGI [10]: > 100 µM | TGI [7]: > 100 µM | TGI [8]: > 100 µM | TGI [9]: 44.4 µM

COc1cc(C(N)=O)c(OC)c(OC)c1OC
TGI [1]: > 100 µM | TGI [2]: > 100 µM | TGI [3]: > 100 µM | TGI [4]: > 100 µM | TGI [5]: > 100 µM | TGI [6]: > 100 µM | TGI [7]: > 100 µM | TGI [8]: > 100 µM | TGI [9]: > 100 µM

CC(=O)OCC1OC(O[C@@H]2C[C@H]3C(C)(C)[C@H](OC(C)=O)CC[C@]3(C)[C@H]3CC[C@@H]4[C@]5(CC[C@@]4(C)[C@@]32C)O[C@@H]([C@H](O)C(C)(C)O)C[C@@H]5C)C(O)C(O)C1O (some centres not stated)
GI50 [1]: 3.16 µM | TGI [1]: 20 µM | GI50 [2]: 1.83 µM | TGI [2]: 4.28 µM | GI50 [3]: 3.61 µM | TGI [3]: 15.6 µM | GI50 [4]: 12.9 µM | TGI [4]: 26.9 µM | GI50 [5]: 10.7 µM | TGI [5]: 22.5 µM | GI50 [6]: 5.13 µM | TGI [6]: 18.4 µM | GI50 [10]: 3.08 µM | TGI [10]: 12.9 µM | GI50 [7]: 10.4 µM | TGI [7]: 22.9 µM | GI50 [9]: 6.36 µM | TGI [9]: 19.7 µM

CC1=CC(=O)c2[nH]c3ccccc3c2C1=O
GI50 [1]: 3.33 µM | TGI [1]: 10.6 µM | GI50 [2]: 17.6 µM | TGI [2]: > 25 µM | GI50 [4]: 3.69 µM | TGI [4]: 7.28 µM | GI50 [5]: 4.22 µM | TGI [5]: 7.66 µM | GI50 [6]: 4.36 µM | TGI [6]: 8.28 µM | GI50 [10]: 5.71 µM | TGI [10]: 16.7 µM | GI50 [7]: 3.94 µM | TGI [7]: 7.65 µM | GI50 [8]: 5.04 µM | TGI [8]: 9.24 µM | GI50 [9]: 4.21 µM | TGI [9]: 7.67 µM

Nc1ccccc1C#Cc1ccccc1C#CCCCCO
GI50 [1]: 23.2 µM | TGI [1]: 78.7 µM | GI50 [2]: 15.9 µM | TGI [2]: 31.1 µM | GI50 [3]: 17 µM | TGI [3]: 32.6 µM | GI50 [4]: 24.4 µM | TGI [4]: 58.1 µM | GI50 [5]: 31.5 µM | TGI [5]: 94.3 µM | GI50 [6]: 11.3 µM | TGI [6]: 33.6 µM | GI50 [7]: 25.1 µM | TGI [7]: 77.3 µM | GI50 [8]: 27.5 µM | TGI [8]: 91.5 µM | GI50 [9]: 11.9 µM | TGI [9]: 32.5 µM

COc1ccc2c(c1)[n+]([O-])c(-c1ccc(Cl)c(Cl)c1)c(N)[n+]2[O-]
TGI [2]: > 100 µM | TGI [4]: 30.9 µM | TGI [5]: 31.5 µM | TGI [6]: > 100 µM | TGI [10]: > 100 µM | TGI [7]: > 100 µM

N#CCc1nc2c(s1)C(=O)c1ccccc1C2=O
TGI [2]: 46.5 µM | TGI [3]: 28.1 µM | TGI [4]: 36.4 µM | TGI [5]: 23.7 µM | TGI [6]: 49.3 µM | TGI [7]: 34.8 µM | TGI [8]: 36.5 µM | TGI [9]: 26.5 µM

Fc1cc(Nc2ccc3c(OCCCN4CCOCC4)cccc3n2)ccc1Cl
GI50 [1]: 2.48 µM | TGI [1]: 8.66 µM | GI50 [2]: 1.53 µM | TGI [2]: 3 µM | GI50 [3]: 1.71 µM | TGI [3]: 3.17 µM | GI50 [4]: 2.21 µM | TGI [4]: 5.38 µM | GI50 [5]: 2.1 µM | TGI [5]: 4.39 µM | GI50 [6]: 1.86 µM | TGI [6]: 6.2 µM | GI50 [10]: 1.69 µM | TGI [10]: 6.64 µM | GI50 [8]: 2.01 µM | TGI [8]: 4.1 µM | GI50 [9]: 2.32 µM | TGI [9]: 5.61 µM

OCC(O)C(OC1OC(CO)C(O)C(O)C1O)c1nn(-c2ccc(F)cc2)c2nc3cc(Cl)c(Cl)cc3cc12 (configuration not stated)
TGI [1]: > 100 µM | TGI [2]: > 100 µM | TGI [3]: > 100 µM | TGI [4]: > 100 µM | TGI [6]: > 100 µM | TGI [10]: > 100 µM | TGI [8]: > 100 µM | TGI [9]: > 100 µM

NC(=O)c1ccc(NC(=O)c2oc3ccccc3c2-c2cnn(-c3ccccc3)c2)cc1
TGI [1]: > 23.2 µM | GI50 [3]: > 100 µM | TGI [3]: > 100 µM | GI50 [4]: 6 µM | TGI [4]: > 100 µM | GI50 [6]: 1.89 µM | TGI [6]: 8.31 µM | GI50 [10]: > 100 µM | TGI [10]: > 100 µM | GI50 [7]: > 100 µM | TGI [7]: > 100 µM | GI50 [8]: > 23.3 µM | TGI [8]: > 100 µM

O=C(O)C1C2CC3CC2CC31 (configuration not stated)
TGI [1]: > 100 µM | TGI [3]: > 100 µM | TGI [4]: > 100 µM | TGI [5]: > 100 µM | TGI [6]: > 100 µM | TGI [7]: > 100 µM | TGI [8]: > 100 µM | TGI [9]: > 100 µM

CN(C)/C(=N/C(=O)Nc1ccccc1)SCc1ccccc1
TGI [1]: > 100 µM | TGI [2]: > 100 µM | TGI [3]: > 100 µM | TGI [4]: > 100 µM | TGI [5]: > 100 µM | TGI [6]: > 100 µM | TGI [7]: > 100 µM | TGI [8]: > 100 µM | TGI [9]: > 100 µM

COc1cc(Nc2ncc(-c3ccccc3)o2)cc(OC)c1OC
GI50 [1]: 7.32 µM | TGI [1]: > 25 µM | GI50 [2]: 0.951 µM | TGI [2]: > 25 µM | GI50 [3]: 2.14 µM | TGI [3]: > 25 µM | GI50 [4]: 2.84 µM | TGI [4]: > 25 µM | GI50 [5]: 0.138 µM | GI50 [6]: 0.577 µM | TGI [6]: > 19.2 µM | GI50 [7]: 0.986 µM | TGI [7]: > 25 µM | GI50 [8]: 1.62 µM | TGI [8]: > 25 µM | GI50 [9]: 2.24 µM | TGI [9]: > 25 µM

C=C(C)[C@@H]1CC[C@]2(C#N)CC[C@]3(C)[C@H](CC[C@@H]4[C@@]5(C)CCCNC(C)(C)[C@@H]5CC[C@]43C)[C@@H]12
GI50 [1]: 2.73 µM | TGI [1]: 9.38 µM | GI50 [2]: 1.64 µM | TGI [2]: 3.1 µM | GI50 [3]: 1.67 µM | TGI [3]: 3.04 µM | GI50 [4]: 3.32 µM | TGI [4]: 10.9 µM | GI50 [5]: 1.71 µM | TGI [5]: 3.08 µM | GI50 [7]: 1.77 µM | TGI [7]: 3.42 µM | GI50 [8]: 2.04 µM | TGI [8]: 4.54 µM | GI50 [9]: 1.96 µM | TGI [9]: 3.6 µM

O=C1CCCC2COc3ccc(O)c1c32 (configuration not stated)
TGI [1]: > 100 µM | TGI [2]: > 100 µM | TGI [4]: > 100 µM | TGI [5]: > 100 µM | TGI [6]: > 100 µM | TGI [10]: > 100 µM | TGI [8]: > 100 µM | TGI [9]: > 100 µM

CC(C)S(=O)(=O)n1c(N)nc2ccc(/C(=N/O)c3ccccc3)cc21
TGI [1]: 57.2 µM | TGI [2]: 36.8 µM | TGI [4]: 60.8 µM | TGI [6]: 47.7 µM | TGI [10]: 27.2 µM | TGI [7]: 45.3 µM | TGI [8]: > 100 µM | TGI [9]: 81.8 µM

O=C(O)c1oc2ccc([N+](=O)[O-])c3c2c1CCC3
TGI [2]: > 100 µM | TGI [3]: > 100 µM | TGI [4]: > 100 µM | TGI [6]: > 100 µM | TGI [7]: > 100 µM | TGI [8]: > 100 µM
